Measured values from ChEMBL document CHEMBL1136408, “Structure-activity and crystallographic analysis of benzophenone derivatives-the potential anticancer agents” (Bioorg Med Chem Lett, 2003).

How the values were obtained:
CPT30 cell line = assay: Inhibitory concentration against camptothecin (CPT) resistant cell line using tetrazolium dye reduction assay (MTT); format: functional, cell-based; conditions: Homo sapiens
KB 3-1 [1] = assay: Compound was tested for cell arrest at S phase at 50 nM concentration in KB human cancer cells; format: functional; conditions: read-out: Inhibition
KB 3-1 [2] = assay: Compound was tested for cell arrest at Go/G1 phase at 25 nM concentration in KB human cancer cells; format: functional; conditions: read-out: Inhibition
KB [3] = assay: Inhibitory concentration against vincristine-resistant cell line (KB-Vin 10) using tetrazolium dye reduction assay (MTT); format: functional, cell-based; conditions: Homo sapiens
KB 3-1 [4] = assay: Compound was tested for cell arrest at S phase at 25 nM concentration in KB human cancer cells; format: functional; conditions: read-out: Inhibition
KB 3-1 [5] = assay: Compound was tested for cell arrest at Go/G1 phase at 50 nM concentration in KB human cancer cells; format: functional; conditions: read-out: Inhibition
KB 3-1 [6] = assay: Compound was tested for cell arrest at Go/G1 phase at 100 nM concentration in KB human cancer cells; format: functional; conditions: read-out: Inhibition
HONE1 cell line = assay: Inhibitory concentration against human NPC cancer cell line using tetrazolium dye reduction assay (MTT); format: functional, cell-based
KB [7] = assay: Inhibitory concentration against taxol resistant cell line (KBs5) at a concentration of 50 nM using tetrazolium dye reduction assay (MTT); format: functional, cell-based; conditions: Homo sapiens
KB 3-1 [8] = assay: Compound was tested for cell arrest at sub-G1 phase at 50 nM concentration in KB human cancer cells; format: functional; conditions: read-out: Inhibition
KB 3-1 [9] = assay: Compound was tested for cell arrest at sub-G1 phase at 25 nM concentration in KB human cancer cells; format: functional; conditions: for Percent of cells arrested in sub-G1 phase at 0.025 µM: Homo sapiens, KB 3-1, read-out: Inhibition
KB 3-1 [10] = assay: Compound was tested for cell arrest at G2/M phase at 50 nM concentration in KB human cancer cells; format: functional; conditions: read-out: Inhibition
KB 3-1 [11] = assay: Compound was tested for cell arrest at G2/M phase at 100 nM concentration in KB human cancer cells; format: functional; conditions: read-out: Inhibition
KB [12] = assay: Inhibitory concentration against VP16 resistant cell line (KB-7D) using tetrazolium dye reduction assay (MTT); format: functional, cell-based; conditions: Homo sapiens
KB 3-1 [13] = assay: Compound was tested for cell arrest at sub-G1 phase at 100 nM concentration in KB human cancer cells; format: functional; conditions: read-out: Inhibition
KB 3-1 [14] = assay: Compound was tested for cell arrest at G2/M phase at 25 nM concentration in KB human cancer cells; format: functional; conditions: read-out: Inhibition
KB 3-1 [15] = assay: Compound was tested for cell arrest at S phase at 100 nM concentration in KB human cancer cells; format: functional; conditions: read-out: Inhibition
KB [16] = assay: Inhibitory concentration against camptothecin (CPT) resistant cell line (KB-100) using tetrazolium dye reduction assay (MTT); format: functional, cell-based; conditions: Homo sapiens
KB [17] = assay: Inhibitory concentration against human oral cancer cell line (KB) using tetrazolium dye reduction assay (MTT); format: functional, cell-based

| SMILES | IC50 (CPT30 cell line) [nM] | percent of cells arrested in S phase at 0.05 µM (KB 3-1 [1]) [%] | percent of cells in G0/G1 phase at 0.025 µM (KB 3-1 [2]) [%] | IC50 (KB [3]) [nM] | Cells arrested in S phase (%) at 0.025 µM (KB 3-1 [4]) [%] | % cells in G0/G1 phase at 0.05 µM (KB 3-1 [5]) [%] | percent cells arrested in G0/G1 phase at 0.1 µM (KB 3-1 [6]) [%] | IC50 (HONE1 cell line) [nM] | IC50 (KB [7]) [nM] | Cells in sub-G1 phase at 0.05 µM (KB 3-1 [8]) [%] | Percent of cells arrested in sub-G1 phase at 0.025 µM (KB 3-1 [9]) [%] | Cells arrested in G2/M phase (%) at 0.05 µM (KB 3-1 [10]) [%] | percent of cells arrested in G2/M phase at 0.1 µM (KB 3-1 [11]) [%] | IC50 (KB [12]) [nM] | Percent of cells in sub-G1 phase at 0.1 µM (KB 3-1 [13]) [%] | percent of cells arrested in G2/M phase at 0.025 µM (KB 3-1 [14]) [%] | Cells arrested in S phase at 0.1 µM (KB 3-1 [15]) [%] | IC50 (KB [16]) [nM] | IC50 (KB [17]) [nM] | Percent of cells arrested in sub-G1 phase (KB 3-1 [9]) [%] |
| --- | --- | --- | --- | --- | --- | --- | --- | --- | --- | --- | --- | --- | --- | --- | --- | --- | --- | --- | --- | --- |
| COc1ccc(/C=C\c2cc(OC)c(OC)c(OC)c2)cc1O [COMBRETASTATIN A4] | 6.9 | 10.6 | 8.9 | 9.5 | 11 | 9.3 | 5.2 | 6.5 | 7 | 16.8 | 18.3 | 63.2 | 72.3 | 7.9 | 11.6 | 61.6 | 10.6 | 7.3 | 6.2 | – |
| COc1cc(C(=O)c2cc(Cl)ccc2O)cc(OC)c1OC | 5000 | 15.9 | 61.8 | 8340 | 14.6 | 59.4 | 45.4 | 6110 | 4550 | 5.7 | 5.3 | 18.9 | 16 | 5450 | 26.5 | 18.3 | 11.8 | 4070 | 5460 | – |
| COc1cc(C(=O)c2cc(Cl)ccc2N)cc(OC)c1OC | 60.3 | 14.6 | 61.7 | 97.2 | 14.3 | 61.7 | 5.7 | 64.5 | 71 | 6.4 | – | 17.3 | 73.2 | 104 | 13.9 | 17.3 | 7.1 | 156 | 90.4 | 6.5 |
| CNc1ccc(Cl)cc1C(=O)c1cc(OC)c(OC)c(OC)c1 | 5350 | – | – | 5850 | – | – | – | 5140 | 2290 | – | – | – | – | 5410 | – | – | – | 7160 | 6080 | – |
| COc1ccc(N)c(C(=O)c2cc(OC)c(OC)c(OC)c2)c1 | 41 | – | – | 48.6 | – | – | – | 59.2 | 34.7 | – | – | – | – | 38.1 | – | – | – | 22.5 | 38.5 | – |
| COc1ccc(C(=O)c2cc(OC)c(OC)c(OC)c2)cc1O [PHENSTATIN] | 37.2 | 10.5 | 17.6 | 34.1 | 9.9 | 7.6 | 5.6 | 138 | 184 | 17.8 | 32.9 | 63.9 | 73.5 | 180 | 13 | 39.6 | 7.7 | 34.8 | 129 | – |
| COc1ccc(C(=O)c2cc(OC)c(OC)c(OC)c2)c(N)c1 | 37.3 | – | – | 45.8 | – | – | – | 35.8 | 25.6 | – | – | – | – | 29.3 | – | – | – | 18.9 | 25.8 | – |
